From patent publication US10206902B2, “Mono- or di-substituted indoles as dengue viral replication inhibitors” (priority 2014, dated 2019) come the findings set out here.

What all share (assay type): cell-based
The subject of data set [1] is DENV-2 strain 16681. In words: Tetravalent RT-qPCR assay Protocol A, serotype 2. As to conditions: Dengue virus, DENV2, 72 h, RT-qPCR serotype 2 16681, Vero cells, day 3. Here is the method: (§1) The antiviral activity of the compounds of the invention was tested against DENV-1 strain TC974#666 (NCPV), DENV-2 strain 16681, DENV-3 strain H87 (NCPV) and DENV-4 strains H241 (NCPV) and EDEN (SG/06K2270DK1/2005; GenBank accession number QG398256) in a RT-qPCR assay. Therefore, Vero cells were infected with either DENV-1, or -2, or -3, or -4 in the presence or absence of test compounds. At day 3 post-infection, the cells were lysed and cell lysates were used to prepare cDNA of both a viral target (the 3′UTR of DENV; table 2) and a cellular reference gene (β-actin, table 2). Subsequently, a duplex real time PCR was performed on a Lightcycler480 instrument. The generated Cp value is inversely proportional to the amount of RNA expression of these targets. Inhibition of DENV replication by a test compound result in a shift of Cp's for the 3′UTR gene. On the other hand, if a test compound is toxic to the cells, a similar effect on β-actin expression will be observed. The comparative ΔΔCp method is used to calculate EC50, which is based on the relative gene expression of the target gene (3′UTR) normalized with the cellular housekeeping gene (β-actin). In addition, CC50 values were determined based on the Cp values acquired for the housekeeping gene β-actin.
(§2) The culture medium consisted of minimal essential medium supplemented with 2% of heat-inactivated fetal calf serum, 0.04% gentamycin (50 mg/mL) and 2 mM of L-glutamine. Vero cells, obtained from ECACC, were suspended in culture medium and 75 μL/well was added in 96-well plates (10000 cells/well), which already contain the antiviral compounds. Typically, these plates contain a 4-fold serial dilution of 9 dilution steps of the test compound at 200 times the final concentration in 100% DMSO (500 nL; final concentration range: 25 μM-0.00038 μM). In addition, each plate contains wells which are assigned as virus controls (containing cells and virus in the absence of compound) and cell controls (containing cells in the absence of virus and compound). Once the cells were added in the plates, the plates were incubated in a fully humidified incubator (37° C., 5% CO2) until the next day. Then, DENV-1 strain TC974#666, DENV-2 strain 16681, DENV-3 strain H87 or DENV-4 strains H241 or EDEN were added. […] In parallel, 25 μL of culture medium was added to the cell controls. Next, the plates were incubated for 3 days in a fully humidified incubator (37° C., 5% CO2). After 3 days, the supernatant was removed from the wells and the cells were washed twice with ice-cold PBS (˜100 μL). The cell pellets within the 96-well plates were stored at −80° C. for at least 1 day. Next, RNA was extracted using the Cells-to-CT™ lysis kit, according to the manufacture's guideline (Applied Biosystems). The cell lysates can be stored at −80° C. or immediately used in the reverse transcription step. In preparation of the reverse transcription step, mix A (table 3A) was prepared and 7.57 μL/well was dispensed in a 96-well plate. After addition of 5 μL of the cell lysates, a five minute denaturation step at 75° C. was performed (table 3B). Afterwards, 7.43 μL of mix B was added (table 3C) and the reverse transcription step was initiated (table 3D) to generate cDNA.
(§3) Finally, a RT-qPCR mix was prepared, mix C (table 4A), dispensed in 96-well LightCycler qPCR plates to which 3 μL of cDNA was added and the qPCR was performed according to the conditions in table 4B on a LightCycler 480. Using the LightCycler software and an in-house LIMS system, dose response curves for each compound were calculated and the half maximal effective concentration (EC50) and the half maximal cytotoxic concentration (CO50) were determined (Tables 6-9).

In data set [2] the test system is DENV-3 strain H87. Description: Tetravalent RT-qPCR assay Protocol A, serotype 3. As to conditions: Dengue virus, DENV3, 72 h, RT-qPCR serotype 3 H87, Vero cells, day 3. Here is the method: as §1, §2, §3
Data set [3] can be described thus: in vitro. As to conditions: African green monkey. On the procedure:
as §1, §2, §3

Data set [4] concerns uninfected Vero cells. In words: in vitro. The following applies: African green monkey. Here is the method: Potential cytotoxic effects of the compounds were evaluated in uninfected Vero cells. Cells were seeded at 4×10^4 cells/well in a 96-well plate in the presence of two-, three- or five-fold serial dilutions (ranging from 50 μg/mL-0.0038 μg/mL, 50 μg/mL-0.0076 μg/mL, and 50 μg/mL-0.00013 μg/mL, respectively) of compound and incubated for 4 to 7 days. Culture medium was discarded and 100 μL 3-(4,5-dimethylthiazol-2-yl)-5-(3-carboxymethoxyphenyl)-2-(4-sulfophenyl)-2H-tetrazolium/phenazinemethosulfate (MTS/PMS; Promega, Leiden, The Netherlands) in PBS was added to each well. Following a 2-hour incubation period at 37° C., the optical density was determined at 498 nm. Cytotoxic activity was calculated using the following formula: % cell viability=100×(ODCompound/ODCC), where ODcompound and ODCC correspond to the optical density at 498 nm of the uninfected cell cultures treated with compound and that of uninfected, untreated cell cultures, respectively. The 50% cytotoxic concentration (i.e., the concentration that reduces the total cell number with 50%; CC50) was calculated using linear interpolation (Tables 7 and 8).

In data set [5] the test system is Vero cells. Description: in vitro. As to conditions: African green monkey. Here is the method:
(§4) In parallel, the toxicity of the compounds was assessed on the same plates. Once the read-out for the eGFP signal was done, 10 μL of resazurin, a cell viability stain, was added to all wells of the 384-well plates. The resazurin assay is based on the reduction of the blue resazurin by NADH, produced by the cells, into the highly fluorescent product, resorufin. The formation of pink fluorescent resorufin is directly related to the number of viable cells in the well. The plates were incubated for an additional 5 hours in a fully humidified incubator (37° C., 5% CO2). Next, the plates were measured on an Infinite reader (Tecan) using an excitation wavelength of 530 nm. The half maximal cytotoxic concentration (CO50) was also determined, defined as the concentration required to reduce the resazurin conversion by 50% compared to that of the cell control wells (Table 1). Finally, the selectivity index (SI) was determined for the compounds, which was calculated as followed: SI=CC50/EC50.

Data set [6] in a line: in vitro. As to conditions: African green monkey, CC50. On the procedure: as §4

Take `COc1cc(NC(C(=O)c2c[nH]c3c(C)c(Cl)ccc23)c2ccc(F)cc2OC)cc(OCCO)c1` (single isomer, unassigned) [Compound 3A, 1-(6-chloro-7-methyl-1H-indol-3-yl)-2-(4-fluoro-2-methoxyphenyl)-2-((3-(2-hydroxyethoxy)-5-methoxyphenyl)amino)ethanone]: the EC50 in data set [1] was determined as 0.79 nM; in data set [2] it was 88 nM. In data set [3], this compound gave a half-maximal cytotoxic concentration (CC50) at 3 days of 4.1 µM. The same compound showed a CC50 in data set [4] of 13 µM.

For `COc1cc(NC(C(=O)c2c[nH]c3cc(F)ccc23)c2ccc(F)cc2OC)cc(OCCO)c1` (single isomer, unassigned) [Compound 1A, 1-(6-fluoro-1H-indol-3-yl)-2-(4-fluoro-2-methoxyphenyl)-2-((3-(2-hydroxyethoxy)-5-methoxyphenyl)amino)ethanone], the figures for the EC50 in data set [1] and in data set [2] were 3.2 nM and 120 nM, respectively. Moreover, the cytotoxic concentration (CC50) in data set [5] was 8.4 µM.

As to `COc1cc(NC(C(=O)c2c[nH]c3cc(OC)c(F)cc23)c2ccc(F)cc2OC)cc(OCCO)c1` (single isomer, unassigned) [Compound 7A, 2-(4-fluoro-2-methoxyphenyl)-1-(5-fluoro-6-methoxy-1H-indol-3-yl)-2-((3-(2-hydroxyethoxy)-5-methoxyphenyl)amino)ethanone], the EC50 stood at 3.4 nM in data set [1] and 190 nM in data set [2]. Besides, the values for the CC50 in data set [6] and in data set [4] were greater than 8.6 µM and 18 µM, respectively. Moreover, the midpoint of cytotoxicity in data set [3], the CC50 at 3 days, lay at 3.8 µM.

On to `COc1cc(NC(C(=O)c2c[nH]c3cc(OC)c(C)cc23)c2ccc(F)cc2OC)cc(OCCO)c1` (single isomer, unassigned) [Compound 6A, 2-(4-fluoro-2-methoxyphenyl)-2-((3-(2-hydroxyethoxy)-5-methoxyphenyl)amino)-1-(6-methoxy-5-methyl-1H-indol-3-yl)ethanone], for which the EC50 in data set [1] is 1.7 nM; in data set [2], 130 nM. Also, the CC50 worked out at 7.5 µM in data set [6] and 17 µM in data set [4].

Turning to `COc1cc(NC(C(=O)c2c[nH]c3c(F)c(F)ccc23)c2ccc(F)cc2OC)cc(OCCO)c1` (single isomer, unassigned) [Compound 5B, 1-(6,7-difluoro-1H-indol-3-yl)-2-(4-fluoro-2-methoxyphenyl)-2-((3-(2-hydroxyethoxy)-5-methoxyphenyl)amino)ethanone], the EC50 in data set [1] turned out to be 3.6 nM; in data set [2], 190 nM. Further, the CC50 turned out to be 6.5 µM in data set [5] and 11 µM in data set [4].

With `COc1cc(NC(C(=O)c2c[nH]c3cc(Cl)ccc23)c2ccc(F)cc2OC)cc(OCCO)c1` (single isomer, unassigned) [Compound 4A, 1-(6-chloro-1H-indol-3-yl)-2-(4-fluoro-2-methoxyphenyl)-2-((3-(2-hydroxyethoxy)-5-methoxyphenyl)amino)ethanone], the EC50 in data set [1] worked out at 1.6 nM; in data set [2] it was 140 nM. Moreover, the CC50 in data set [5] came out at 5.9 µM; in data set [4], 18 µM.

For the compound `COc1cc(NC(C(=O)c2c[nH]c3c(Cl)c(OC)ccc23)c2ccc(F)cc2OC)cc(OCCO)c1` (single isomer, unassigned) [Compound 8A, 1-(7-chloro-6-methoxy-1H-indol-3-yl)-2-(4-fluoro-2-methoxyphenyl)-2-((3-(2-hydroxyethoxy)-5-methoxyphenyl)amino)ethanone], the values for the EC50 in data set [1] and in data set [2] were 0.9 nM and 200 nM, respectively. This compound came in with a CC50 in data set [5] of 8.6 µM. The CC50 at 3 days in data set [3] turned out to be 10 µM.

As for `COc1cc(NC(C(=O)c2c[nH]c3cc(F)c(F)cc23)c2ccc(F)cc2OC)cc(OCCO)c1` (single isomer, unassigned) [Compound 10B, 1-(5,6-difluoro-1H-indol-3-yl)-2-(4-fluoro-2-methoxy-phenyl)-2-((3-(2-hydroxyethoxy)-5-methoxyphenyl)amino)ethanone], the EC50 worked out at 3.2 nM in data set [1] and 130 nM in data set [2]. Moreover, the CC50 in data set [5] was 6.9 µM; in data set [4], 11 µM.
